# In patent US20250000881A1, “TREATMENT OF TREATMENT RESISTANT […] PSILOCYBIN” (COMPASS […], priority 2021, published 2025):
# What was measured:
# Assay type in all cases: in vivo, human
# [1] = system: adult subjects with TRD; assay: Phase 2b trial in TRD: Digit Symbol Substitution Test (DSST); details: 25 mg vs 1 mg groups, week 3
# Protocol: (§1) Other objectives were to evaluate the effects of psilocybin on quality of life and wellbeing, functioning and associated disability, cognitive function, and anxiety compared to 1 mg psilocybin on: • (a) Quality of life in subject EuroQoL (EQ)-5 dimension-3 level scale (EQ-5D-3L) score change from Baseline to week 3. This will also be assessed at week 12. This assessment was not mandatory. • (b) Quality of life in caregiver EQ-5D-3L score change from Baseline to week 3. This was assessed at week 12. • (c) Functioning and associated disability in the Sheehan Disability Scale (SDS) score change from Baseline to week 3. This was also assessed at week 12. • (d) Cognitive function as measured by the Digit Symbol Substitution Test (DSST) score change from baseline to week 3. This was assessed at day 1 and week 12. • (e) Level of anxiety as measured using the change in Generalised Anxiety Disorder 7 item Scale (GAD-7) total score change from baseline to week 3. This was assessed at week 12. • (f) Subject determined level of depression as measured using the change in Quick Inventory of Depressive Symptomatology Self-Rated (QIDS-SR-16) total score from Baseline to week 3. […] This was assessed at week 12. • (h) To evaluate the impact of different psilocybin doses on real life functional activity estimated from passive data streams collected on a mobile app on subjects' mobile phones. […]
# [2] = system: adult subjects with TRD; assay: Phase 2b trial in TRD: Sheehan Disability Scale (SDS); details: 25 mg vs 1 mg, week 3
# Protocol: as §1
# [3] = system: adult subjects with TRD; assay: Phase 2b trial in TRD: Generalised Anxiety Disorder-7 item scale (GAD-7); details: 25 mg vs 1 mg group, week 3
# Protocol: as §1
# [4] = system: adult subjects with TRD; assay: Phase 2b trial in TRD: EQ-5D-3L and EuroQoL Visual Analogue Scale quality of life; details: 25 mg vs 1 mg, week 3
# Protocol: as §1
smiles,measurement,setting,value
"CN(C)CCc1c[nH]c2cccc(OP(=O)(O)O)c12 [COMP360, psilocybin]",DSST least squares mean treatment difference,[1],1.32
same,SDS treatment difference,[2],−6.49
same,"GAD-7 total score, least squares mean (95% confidence intervals) treatment difference",[3],"−1.79 (−3.35, −0.23)"
same,"EQ-5D-3L total score, least squares mean treatment difference",[4],0.06
same,EuroQoL Visual Analogue Scale treatment difference,[4],6.77
